Reference: BindingDB's records for doi:10.1073/pnas.90.2.408 (Synaptic Pharmaceutical, 1993)

Biological target: T1, 5-hydroxytryptamine receptor 1F (Homo sapiens, UniProt P30939)
T1 sequence (P30939 whole entry): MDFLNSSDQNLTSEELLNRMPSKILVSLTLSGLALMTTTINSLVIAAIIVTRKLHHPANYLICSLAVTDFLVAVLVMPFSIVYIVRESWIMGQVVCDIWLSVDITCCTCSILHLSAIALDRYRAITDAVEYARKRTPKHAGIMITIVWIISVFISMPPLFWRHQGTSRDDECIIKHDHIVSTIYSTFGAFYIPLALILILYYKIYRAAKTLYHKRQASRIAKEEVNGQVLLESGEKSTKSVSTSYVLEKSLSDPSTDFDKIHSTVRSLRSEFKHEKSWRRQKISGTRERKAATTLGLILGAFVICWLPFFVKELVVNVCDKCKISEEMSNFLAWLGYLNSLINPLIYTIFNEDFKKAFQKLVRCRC

Row | Structure (SMILES) | Ki
1 | CCCN(CCC)C1CCc2cccc(O)c2C1 (configuration not stated) | 1770 nM
2 | COc1ccc2[nH]cc(CCN(C)C)c2c1 [3-(2-DIMETHYLAMINOETHYL)-5-METHOXYINDOLE] | 37 nM
3 | O=C(c1ccc(F)cc1)C1CCN(CCn2c(=O)[nH]c3ccccc3c2=O)CC1 [3-(2-{4-[(4-fluorophenyl)carbonyl]piperidin-1-yl}ethyl)-1,2,3,4-tetrahydroquinazoline-2,4-dione] | > 10000 nM
4 | Cn1cc(CCN)c2cc(O)ccc21 [5-HT,omega-N-Me] | 184 nM
5 | O=C(CCCN1CCC2(CC1)C(=O)NCN2c1ccccc1)c1ccc(F)cc1 [8-[4-(4-fluorophenyl)-4-oxidanylidene-butyl]-1-phenyl-1,3,8-triazaspiro[4.5]decan-4-one] | > 10000 nM
6 | CC(C)NCC(O)COc1cccc2[nH]ccc12 (configuration not stated) [LB-46] | > 10000 nM
7 | CN1C[C@@H](NS(=O)(=O)N(C)C)C[C@@H]2c3cccc4c3c(cn4C)C[C@H]21 [MESULERGINE] | > 10000 nM
8 | CCCN(CCC)CCc1c[nH]c2ccc(C(N)=O)cc12 [NN-DIPROP-5-CT] | 1610 nM
9 | COc1cc(N)c(Cl)cc1C(=O)NC1CN2CCC1CC2 (configuration not stated) [ZACOPRIDE,R] | > 10000 nM
10 | COc1cc(CC(C)N)c(OC)cc1I (configuration not stated) [[125I]2,5-dimethoxy-4-iodoamphetamine] | 1740 nM
11 | CSc1ccc2c(c1)C(N1CCN(C)CC1)Cc1ccccc1S2 (configuration not stated) [methanesulfonic acid;1-methyl-4-(3-methylsulfanyl-5,6-dihydrobenzo[b][1]benzothiepin-5-yl)piperazine] | 652 nM
12 | COc1ccc2[nH]cc(CCN)c2c1 [tryptamine, 5-Methoxy] | 1170 nM
